Source: paper PMC3733634, “A Computational Module Assembled from Different Protease Family Motifs Identifies PI PLC from Bacillus cereus as a Putative Prolyl Peptidase with a Serine Protease Scaffold” (PLoS ONE, 2013)
Structures can show the parent of a compound that is named as a salt.

Columns and labels:
[1] = target: T1, cold-active Vibrio alkaline phosphatase (VAP) (Vibrio sp. G15-21, UniProt Q93P54); experiment: inhibition of native alkaline phosphatase activity at pH […] (n = […]); format: biochemical
T1 sequence (Q93P54 20-521): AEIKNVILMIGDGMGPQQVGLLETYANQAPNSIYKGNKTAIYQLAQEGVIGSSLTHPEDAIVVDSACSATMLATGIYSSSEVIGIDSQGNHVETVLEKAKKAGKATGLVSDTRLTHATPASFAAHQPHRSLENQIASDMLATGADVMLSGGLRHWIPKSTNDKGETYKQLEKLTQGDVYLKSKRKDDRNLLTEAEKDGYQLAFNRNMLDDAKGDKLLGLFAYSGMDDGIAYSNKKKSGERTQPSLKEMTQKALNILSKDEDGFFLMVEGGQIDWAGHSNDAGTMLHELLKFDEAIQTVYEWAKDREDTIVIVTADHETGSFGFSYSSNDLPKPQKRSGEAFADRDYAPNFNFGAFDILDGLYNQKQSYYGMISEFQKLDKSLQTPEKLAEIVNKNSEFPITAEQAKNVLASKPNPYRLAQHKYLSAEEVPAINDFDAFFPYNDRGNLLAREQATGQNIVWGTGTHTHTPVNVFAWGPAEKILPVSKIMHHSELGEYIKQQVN

[2] = target: phosphoinositide-specific phospholipase C (PI-PLC) (Bacillus cereus, UniProt P14262); experiment: inhibition of phospholipase activity of commercial PI-PLC on PI-containing large unilamellar vesicles (turbidity/aggregation assay); format: biochemical
Chain of phosphoinositide-specific phospholipase C (PI-PLC) (P14262 32-329 limits assumed): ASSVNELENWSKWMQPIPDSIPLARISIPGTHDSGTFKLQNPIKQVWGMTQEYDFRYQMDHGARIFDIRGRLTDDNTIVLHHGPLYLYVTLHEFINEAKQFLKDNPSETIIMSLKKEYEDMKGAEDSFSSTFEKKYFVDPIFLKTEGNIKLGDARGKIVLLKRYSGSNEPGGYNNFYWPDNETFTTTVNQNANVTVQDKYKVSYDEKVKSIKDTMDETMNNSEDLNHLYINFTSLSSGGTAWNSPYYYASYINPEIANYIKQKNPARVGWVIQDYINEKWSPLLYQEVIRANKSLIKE

`NCCc1ccc(S(=O)(=O)F)cc1` [AEBSF, 4-(2-aminoethyl) benzenesulfonyl fluoride hydrochloride] gave an IC50 [1] of 350 µM and an IC50 [2] of 18 µM.
